The values below come from ChEMBL document CHEMBL1667734, “Eutypoids B-E produced by a Penicillium sp. strain from the North Sea” (J Nat Prod, 2011).

A word on the IC50: it is the concentration at which inhibition is half-maximal.

The source made the active and inactive calls. The calls are words filed in the database; no cut-off is given here.

The test system of data set [1] is Pseudomonas syringae pv. aptata str. DSM 50252. The experiment in a line: Antimicrobial activity against Pseudomonas syringae pv aptata DSM 50252. The format is functional.
The test system of another data set is HT-29. The experiment in a line: Cytotoxicity against human HT-29 cells after 24 hrs by celltiter-blue assay. The format is functional, cell-based.
The subject of data set [2] is Staphylococcus epidermidis. The experiment in a line: Antimicrobial activity against Staphylococcus epidermidis DSM 20044. It counts as functional, organism-based.
For another data set, the system named is Escherichia coli. The experiment in a line: Antimicrobial activity against Escherichia coli K-12 DSM 498. It counts as functional, organism-based.
In data set [3] the target is Glycogen synthase kinase-3 beta (Homo sapiens, UniProt P49841). In words: Inhibition of GSK3-beta by luminescent assay.
Sequence of Glycogen synthase kinase-3 beta (P49841 whole entry): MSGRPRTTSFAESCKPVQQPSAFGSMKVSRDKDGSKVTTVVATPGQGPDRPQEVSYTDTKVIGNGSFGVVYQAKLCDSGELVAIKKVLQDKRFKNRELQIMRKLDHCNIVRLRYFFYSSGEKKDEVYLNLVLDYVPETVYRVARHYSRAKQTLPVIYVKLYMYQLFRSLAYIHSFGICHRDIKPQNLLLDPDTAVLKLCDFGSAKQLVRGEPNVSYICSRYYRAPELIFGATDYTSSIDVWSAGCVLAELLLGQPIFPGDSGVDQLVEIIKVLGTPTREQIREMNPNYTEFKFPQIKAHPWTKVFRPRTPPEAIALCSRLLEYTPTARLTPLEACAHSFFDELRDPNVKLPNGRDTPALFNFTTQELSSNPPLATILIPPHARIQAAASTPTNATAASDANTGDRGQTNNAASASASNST
Another data set has as its system Erwinia amylovora. In words: Antimicrobial activity against Erwinia amylovora DSM 50901. It counts as functional, organism-based.
A further data set has as its system Ralstonia solanacearum. The experiment in a line: Antimicrobial activity against Ralstonia solanacearum DSM 9544. The format is functional, organism-based.
Data set [4] in a line: Cytotoxicity against mouse NIH/3T3 cells after 24 hrs by celltiter-blue assay. The format is cell-based. The settings on record: nih3t3, 24 h.
The next data set concerns Bacillus subtilis. The experiment in a line: Antimicrobial activity against Bacillus subtilis DSM 347. It counts as functional, organism-based.
The test system of another data set is Zymoseptoria tritici. In words: Antimicrobial activity against Septoria tritici. The format is functional, organism-based.
The next data set deals with Xanthomonas campestris. In words: Antimicrobial activity against Xanthomonas campestris DSM 2405. It counts as functional, organism-based.
A further data set deals with Mammaliicoccus lentus. The experiment in a line: Antimicrobial activity against Staphylococcus lentus DSM 6672. It counts as functional, organism-based.
For a further data set, the system named is Pseudomonas fluorescens. The experiment in a line: Antimicrobial activity against Pseudomonas fluorescens NCIMB 10586. It counts as functional, organism-based.
The test system of a further data set is Nakaseomyces glabratus. The experiment in a line: Antimicrobial activity against Candida glabrata DSM 6425. It counts as functional, organism-based.
The test system of another data set is HepG2. The experiment in a line: Cytotoxicity against human HepG2 cells after 24 hrs by celltiter-blue assay. The format is functional, cell-based.
The test system of another data set is Cutibacterium acnes. The experiment in a line: Antimicrobial activity against Propionibacterium acnes DSM 1897. It counts as functional, organism-based.
The subject of the next data set is Pseudomonas aeruginosa. In words: Antimicrobial activity against Pseudomonas aeruginosa DSM 50071. It counts as functional, organism-based.
For another data set, the system named is Parastagonospora nodorum. The experiment in a line: Antimicrobial activity against Septoria nodorum. It counts as functional, organism-based.

With `O=C1OCC(Cc2ccc(O)cc2)=C1c1ccc(O)cc1` [EUTYPOID B], the outcome (in data set [1]; with HT-29; in data set [2]; with Escherichia coli; in the data set on Erwinia amylovora; in the data set on Ralstonia solanacearum) was inactive. For the same compound, the outcome with Bacillus subtilis, in the data set with Zymoseptoria tritici, in the data set with Xanthomonas campestris, in the data set with Mammaliicoccus lentus, in the data set on Pseudomonas fluorescens and in the data set on Nakaseomyces glabratus was inactive. The outcome with HepG2, in the data set with Cutibacterium acnes and with Pseudomonas aeruginosa was inactive. Moreover, the IC50 in data set [3] turned out to be 780 nM. The Activity result in data set [4] was “Non-toxic”.

As for `O=C1OCC(Cc2ccc(O)cc2)=C1c1cc(O)cc(O)c1` [EUTYPOID D], the outcome (in data set [1]; in the data set on HT-29; in [2]; in the data set on Escherichia coli; in the data set on Erwinia amylovora; with Ralstonia solanacearum) was inactive. Also, the outcome in the data set on Bacillus subtilis, with Zymoseptoria tritici, in the data set on Xanthomonas campestris, with Mammaliicoccus lentus, with Pseudomonas fluorescens and with Nakaseomyces glabratus was inactive. The outcome in the data set on HepG2, with Cutibacterium acnes and in the data set on Pseudomonas aeruginosa was inactive. This compound also showed an IC50 in data set [3] of 4080 nM. The Activity entry in data set [4] was “Non-toxic”.

In the case of `O=C1OCC(Cc2ccccc2)=C1c1ccccc1`, the result in the data set on Parastagonospora nodorum was Active.

As to `O=C1OCC(Cc2ccc(O)c(O)c2)=C1c1ccc(O)cc1` [EUTYPOID C], the outcome (in data set [1]; with HT-29; in data set [2]; in the data set on Escherichia coli; in the data set with Erwinia amylovora; in the data set with Ralstonia solanacearum) was inactive. Besides, the outcome in the data set with Bacillus subtilis, in the data set with Zymoseptoria tritici, in the data set on Xanthomonas campestris, in the data set on Mammaliicoccus lentus, with Pseudomonas fluorescens and with Nakaseomyces glabratus was inactive. Further, the result in the data set on HepG2, with Cutibacterium acnes and in the data set with Pseudomonas aeruginosa was inactive. Also, the IC50 in data set [3] turned out to be 670 nM. In addition, the Activity entry in data set [4] is “Non-toxic”.

In the case of `O=C1OCC(Cc2ccc(O)c(O)c2)=C1c1cc(O)cc(O)c1` [EUTYPOID E], the result (in [1]; with HT-29; in data set [2]; with Escherichia coli; in the data set on Erwinia amylovora; in the data set on Ralstonia solanacearum) was inactive. In addition, the outcome with Bacillus subtilis, in the data set with Zymoseptoria tritici, with Xanthomonas campestris, with Mammaliicoccus lentus, in the data set with Pseudomonas fluorescens and with Nakaseomyces glabratus was inactive. The outcome in the data set with HepG2, with Cutibacterium acnes and in the data set on Pseudomonas aeruginosa was inactive. In data set [3], half-maximal inhibition (IC50) was put at 2260 nM. Also, the Activity entry in data set [4] is “Non-toxic”.
